Measurements taken from patent publication US12043599B2, “Herbicidal compounds” (SYNGENTA PARTICIPATIONS AG, priority 2018, dated 2024).

Legend:
Assay type in all cases: in vivo
Settings in all cases: 250 g/h, evaluated after 13 days
[1] = tested on: Echinochloa crus-galli (ECHCG); test: Pre-emergence herbicidal glasshouse test, percentage damage
Outline: (§1)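 Spray solution: acetone/water (50:50), 0.5% Tween 20, applied at 250 g/h. Timing: 1 d (pre-emergence) or 8 d (post-emergence) after sowing. Readout: % plant damage at 13 d, banded 1–5.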

Setaria faberi (SETFA) [2] = test: as above
Outline: as §1

Lolium perenne (LOLPE) [3] = test: as above
Outline: as §1

[4] = tested on: Alopecurus myosuroides (ALOMY); test: as above
Outline: as §1

Avena fatua (AVEFA) [5] = test: as above
Outline: as §1

Setaria faberi (SETFA) [6] = test: Post-emergence herbicidal glasshouse test, percentage damage
Outline: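 Wheat, barley and Setaria faberi were sprayed post-emergence after 8 days' growth (24/16 °C, 14 h light, 65% humidity) with compound in acetone/water (50:50) containing 0.5% Tween 20, at the indicated rates. On wheat, compounds were also applied with cloquintocet-mexyl at 50 g/ha. Damage was scored after 13 days on a five-point scale (5=80-100% to 1=0-19%).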

[7] = tested on: Echinochloa crus-galli (ECHCG); test: as above
Outline: as §1

Lolium perenne (LOLPE) [8] = test: as above
Outline: as §1

[9] = tested on: Alopecurus myosuroides (ALOMY); test: as above
Outline: as §1

Avena fatua (AVEFA) [10] = test: as above
Outline: as §1

| SMILES | ECHCG PRE percentage damage (five point scale) [1] | SETFA PRE percentage damage (five point scale) (Setaria faberi (SETFA) [2]) | LOLPE PRE percentage damage (five point scale) (Lolium perenne (LOLPE) [3]) | ALOMY PRE percentage damage (five point scale) [4] | AVEFA PRE percentage damage (five point scale) (Avena fatua (AVEFA) [5]) | SETFA POST percentage damage (five point scale) (Setaria faberi (SETFA) [6]) | ECHCG POST percentage damage (five point scale) [7] | LOLPE POST percentage damage (five point scale) (Lolium perenne (LOLPE) [8]) | ALOMY POST percentage damage (five point scale) [9] | AVEFA POST percentage damage (five point scale) (Avena fatua (AVEFA) [10]) |
| --- | --- | --- | --- | --- | --- | --- | --- | --- | --- | --- |
| CC#Cc1cc(C)c(C2C(=O)CC3(CCN(C(=O)NC(C)C)CC3)CC2=O)c(C)c1 [Compound A152] | 5 (5=80-100%) | 5 (5=80-100%) | 5 (5=80-100%) | 5 (5=80-100%) | 5 (5=80-100%) | 5 (5=80-100%) | 5 (5=80-100%) | 5 (5=80-100%) | 5 (5=80-100%) | 5 (5=80-100%) |
| CC#Cc1cc(C)c(C2=C(OC(=O)OC)CC3(CCN(C(=O)OC(C)(C)C)CC3)CC2=O)c(C)c1 [Compound P21] | 5 (5=80-100%) | 5 (5=80-100%) | 5 (5=80-100%) | 5 (5=80-100%) | 4 (4=60-79%) | 5 (5=80-100%) | 5 (5=80-100%) | 5 (5=80-100%) | 5 (5=80-100%) | 5 (5=80-100%) |
| CC#Cc1cc(C)c(C2C(=O)CC3(CCN(C(=O)[C@@H](C)O)CC3)CC2=O)c(C)c1 [Compound A156] | 5 (5=80-100%) | 5 (5=80-100%) | 5 (5=80-100%) | 5 (5=80-100%) | 5 (5=80-100%) | 5 (5=80-100%) | 5 (5=80-100%) | 5 (5=80-100%) | 5 (5=80-100%) | 5 (5=80-100%) |
| CC#Cc1cc(C)c(C2C(=O)CC3(CCN(C(=O)c4cnccn4)CC3)CC2=O)c(C)c1 [Compound A16] | 5 (5=80-100%) | 5 (5=80-100%) | 5 (5=80-100%) | 5 (5=80-100%) | 5 (5=80-100%) | 5 (5=80-100%) | 5 (5=80-100%) | 5 (5=80-100%) | 5 (5=80-100%) | 5 (5=80-100%) |
| CC#Cc1cc(C)c(C2C(=O)CC3(CCN(C(=O)C(C)(C)O)CC3)CC2=O)c(C)c1 [Compound A146] | 5 (5=80-100%) | 5 (5=80-100%) | 5 (5=80-100%) | 5 (5=80-100%) | 4 (4=60-79%) | 5 (5=80-100%) | 5 (5=80-100%) | 5 (5=80-100%) | 5 (5=80-100%) | 5 (5=80-100%) |
| CC#Cc1cc(C)c(C2C(=O)CC3(CCN(C(=O)[C@H]4COCCO4)CC3)CC2=O)c(C)c1 [Compound A173] | 5 (5=80-100%) | 5 (5=80-100%) | 5 (5=80-100%) | 5 (5=80-100%) | 5 (5=80-100%) | 5 (5=80-100%) | 5 (5=80-100%) | 5 (5=80-100%) | 5 (5=80-100%) | 5 (5=80-100%) |
